Measured values published in US20230372498A1, “PLK1 SELECTIVE DEGRADATION INDUCING COMPOUND” (UPPTHERA, priority 2020, published 2023).
Read-outs that look alike come from different tables or passages of the source.

Molecular target: T1, PLK1 (Homo sapiens, UniProt P53350)
T1 construct: endogenous in cells; host or cells: HeLa
Assay: PLK1 protein degradation in HeLa cells, Western blotting (PLK1/GAPDH ratio)
Format: cell-based
Settings: 6 hours compound incubation; for DC50: measured only if the grade of Dmax is A or B; for Dmax: thymidine block and release, 10 points three-fold from 3 μM, PLK1 to GAPDH ratio
Outline: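 Thymidine-synchronised HeLa cells (2 mM, 24 h) released 4 h into complete medium, then treated 6 h with compound in 10-point 3-fold dilutions from 3 μM. RIPA lysates (15 μg protein) run on SDS-PAGE; PLK1 Western blot normalised to GAPDH.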

T1 sequence (P53350 whole entry): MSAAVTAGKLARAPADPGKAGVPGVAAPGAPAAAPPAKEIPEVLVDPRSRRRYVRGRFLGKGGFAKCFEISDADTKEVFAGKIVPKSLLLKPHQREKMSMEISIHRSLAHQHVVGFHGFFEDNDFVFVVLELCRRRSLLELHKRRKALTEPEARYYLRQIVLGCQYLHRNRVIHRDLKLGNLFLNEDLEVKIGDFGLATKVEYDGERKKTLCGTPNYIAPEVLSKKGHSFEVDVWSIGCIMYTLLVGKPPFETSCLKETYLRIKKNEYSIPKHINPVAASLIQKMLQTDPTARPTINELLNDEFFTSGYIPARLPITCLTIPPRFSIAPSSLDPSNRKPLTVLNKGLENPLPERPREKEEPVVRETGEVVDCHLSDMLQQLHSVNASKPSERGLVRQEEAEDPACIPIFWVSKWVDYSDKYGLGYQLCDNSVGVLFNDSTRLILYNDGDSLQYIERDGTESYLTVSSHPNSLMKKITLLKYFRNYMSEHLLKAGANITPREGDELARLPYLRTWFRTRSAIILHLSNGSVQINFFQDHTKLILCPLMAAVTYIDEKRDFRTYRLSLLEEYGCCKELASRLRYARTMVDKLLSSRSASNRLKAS

Row | SMILES | DC50 | Dmax (read-out: Dmax) | Dmax
1 | COc1cc(C(=O)NC2CCN(CCOCCOCCNc3cccc4c3C(=O)N(C3CCC(=O)NC3=O)C4=O)CC2)ccc1Nc1ncc2c(n1)N(C1CCCC1)CC(F)(F)C(=O)N2C (stereo not drawn) [Example 96, 4-((9-cyclopentyl-7,7-difluoro-5-methyl-6-oxo-6,7,8,9-tetrahydro-5H-pyrimido[4,5-b][1,4]diazepin-2-yl)amino)-N-(1-(2-(2-(2-((2-(2,6-dioxopiperidin-3-yl)-1,3-dioxoisoindolin-4-yl)amino)ethoxy)ethoxy)ethyl)piperidin-4-yl)-3-methoxybenzamide] | ≤ 50 nM | ≥ 80% | 
2 | CN1C(=O)C(F)(F)CN(C2CCCC2)c2nc(Nc3ccc(C(=O)NC4CCN(C(=O)CCN5CCN(c6cccc7c6C(=O)N(C6CCC(=O)NC6=O)C7=O)CC5)CC4)cc3)ncc21 (stereo not drawn) [Compound 129, 4-((9-cyclopentyl-7,7-difluoro-5-methyl-6-oxo-6,7,8,9-tetrahydro-5H-pyrimido[4,5-b][1,4]diazepin-2-yl)amino)-N-(1-(3-(4-(2-(2,6-dioxopiperidin-3-yl)-1,3-dioxoisoindolin-4-yl)piperazin-1-yl)propanoyl)piperidin-4-yl)benzamide] | ≤ 50 nM | ≥ 80% | 
3 | COc1cc(C(=O)NC2CCN(C(=O)COCCOCCNc3cccc4c3CN(C3CCC(=O)NC3=O)C4=O)C2)c(F)cc1Nc1ncc2c(n1)N(C1CCCC1)CC(F)(F)C(=O)N2C (stereo not drawn) [Compound 150, 4-((9-cyclopentyl-7,7-difluoro-5-methyl-6-oxo-6,7,8,9-tetrahydro-5H-pyrimido[4,5-b][1,4]diazepin-2-yl)amino)-N-(1-(2-(2-(2-((2-(2,6-dioxopiperidin-3-yl)-1-oxoisoindolin-4-yl)amino)ethoxy)ethoxy)acetyl)pyrrolidin-3-yl)-2-fluoro-5-methoxybenzamide] | ≤ 50 nM | ≥ 80% | 
4 | COc1cc(C(=O)NCCOCCOCCNc2cccc3c2C(=O)N(C2CCC(=O)NC2=O)C3=O)c(F)cc1Nc1ncc2c(n1)N(C1CCCC1)CC(F)(F)C(=O)N2C (stereo not drawn) [Compound 152, 4-((9-cyclopentyl-7,7-difluoro-5-methyl-6-oxo-6,7,8,9-tetrahydro-5H-pyrimido[4,5-b][1,4]diazepin-2-yl)amino)-N-(2-(2-(2-((2-(2,6-dioxopiperidin-3-yl)-1,3-dioxoisoindolin-4-yl)amino)ethoxy)ethoxy)ethyl)-2-fluoro-5-methoxybenzamide] | ≤ 50 nM | ≥ 80% | 
5 | COc1cc(C(=O)NC2CCN(CCCCCCCCOCC(=O)N[C@H](C(=O)N3C[C@H](O)C[C@H]3C(=O)NCc3ccc(-c4scnc4C)cc3)C(C)(C)C)CC2)c(F)cc1Nc1ncc2c(n1)N(C1CCCC1)CC(F)(F)C(=O)N2C [Example 84] | ≤ 500 nM |  | B (B: Dmax is 80% or less and 60% or more)
6 | COc1cc(C(=O)NC2CCN(CCCCCCCCCCCCCNc3cccc4c3C(=O)N(C3CCC(=O)NC3=O)C4=O)CC2)c(F)cc1Nc1ncc2c(n1)N(C1CCCC1)CC(F)(F)C(=O)N2C (stereo not drawn) [Compound 16, 4-((9-cyclopentyl-7,7-difluoro-5-methyl-6-oxo-6,7,8,9-tetrahydro-5H-pyrimido[4,5-b][1,4]diazepin-2-yl)amino)-N-(1-(13-((2-(2,6-dioxopiperidin-3-yl)-1,3-dioxoisoindolin-4-yl)amino)tridecyl)piperidin-4-yl)-2-fluoro-5-methoxybenzamide] |  | < 60% | 

Continued, in another order:

Row | DC50 | Dmax (read-out: Dmax) | SMILES | Dmax
7 | ≤ 50 nM | ≥ 80% | COc1cc(C(=O)NC2CCN(CCOCCCNc3cccc4c3C(=O)N(C3CCC(=O)NC3=O)C4=O)C2)c(F)cc1Nc1ncc2c(n1)N(C1CCCC1)CC(F)(F)C(=O)N2C (stereo not drawn) [Example 110, 4-((9-cyclopentyl-7,7-difluoro-5-methyl-6-oxo-6,7,8,9-tetrahydro-5H-pyrimido[4,5-b][1,4]diazepin-2-yl)amino)-N-(1-(2-(3-((2-(2,6-dioxopiperidin-3-yl)-1,3-dioxoisoindolin-4-yl)amino)propoxy)ethyl)pyrrolidin-3-yl)-2-fluoro-5-methoxybenzamide] | 
8 |  | < 60% | COc1cc(C(=O)NC2CCN(Cc3cn(CCCC(=O)Nc4cccc5c4C(=O)N(C4CCC(=O)NC4=O)C5=O)nn3)CC2)c(F)cc1Nc1ncc2c(n1)N(C1CCCC1)CC(F)(F)C(=O)N2C (stereo not drawn) [Compound 46, 4-((9-cyclopentyl-7,7-difluoro-5-methyl-6-oxo-6,7,8,9-tetrahydro-5H-pyrimido[4,5-b][1,4]diazepin-2-yl)amino)-N-(1-((1-(4-((2-(2,6-dioxopiperidin-3-yl)-1,3-dioxoisoindolin-4-yl)amino)-4-oxobutyl)-1H-1,2,3-triazol-4-yl)methyl)piperidin-4-yl)-2-fluoro-5-methoxybenzamide] | 
9 | ≤ 50 nM | ≥ 80% | COc1cc(C(=O)NC2CC3(C2)CN(C(=O)CCCCNc2cccc4c2C(=O)N(C2CCC(=O)NC2=O)C4=O)C3)c(F)cc1Nc1ncc2c(n1)N(C1CCCC1)CC(F)(F)C(=O)N2C (stereo not drawn) [Compound 161, 4-((9-cyclopentyl-7,7-difluoro-5-methyl-6-oxo-6,7,8,9-tetrahydro-5H-pyrimido[4,5-b][1,4]diazepin-2-yl)amino)-N-(2-(5-((2-(2,6-dioxopiperidin-3-yl)-1,3-dioxoisoindolin-4-yl)amino)pentanoyl)-2-azaspiro[3.3]heptan-6-yl)-2-fluoro-5-methoxybenzamide] | 
10 |  | < 60% | COc1cc(C(=O)N[C@H]2CCN(C(=O)CCNC(=O)CNc3cccc4c3C(=O)N(C3CCC(=O)NC3=O)C4=O)C2)c(F)cc1Nc1ncc2c(n1)N(C1CCCC1)CC(F)(F)C(=O)N2C (stereo partly drawn) [Compound 113, 4-((9-cyclopentyl-7,7-difluoro-5-methyl-6-oxo-6,7,8,9-tetrahydro-5H-pyrimido[4,5-b][1,4]diazepin-2-yl)amino)-N-((3S)-1-(3-(2-((2-(2,6-dioxopiperidin-3-yl)-1,3-dioxoisoindolin-4-yl)amino)acetamido)propanoyl)pyrrolidin-3-yl)-2-fluoro-5-methoxybenzamide] | 
11 | ≤ 500 nM | 60 to 80% | COc1cc(C(=O)NC2CCN(CCCCOCCCNc3cccc4c3C(=O)N(C3CCC(=O)NC3=O)C4=O)CC2)c(F)cc1Nc1ncc2c(n1)N(C1CCCC1)CC(F)(F)C(=O)N2C (stereo not drawn) [Compound 19, 4-((9-cyclopentyl-7,7-difluoro-5-methyl-6-oxo-6,7,8,9-tetrahydro-5H-pyrimido[4,5-b][1,4]diazepin-2-yl)amino)-N-(1-(4-(3-((2-(2,6-dioxopiperidin-3-yl)-1,3-dioxoisoindolin-4-yl)amino)propoxy)butyl)piperidin-4-yl)-2-fluoro-5-methoxybenzamide] | 
12 | ≤ 50 nM | ≥ 80% | COc1cc(C(=O)N[C@@H]2CCN(C(=O)CCCCN3CCN(c4cccc5c4C(=O)N(C4CCC(=O)NC4=O)C5=O)CC3)C2)c(F)cc1Nc1ncc2c(n1)N(C1CCCC1)CC(F)(F)C(=O)N2C (stereo partly drawn) [Compound 134, 4-((9-cyclopentyl-7,7-difluoro-5-methyl-6-oxo-6,7,8,9-tetrahydro-5H-pyrimido[4,5-b][1,4]diazepin-2-yl)amino)-N-((3R)-1-(5-(4-(2-(2,6-dioxopiperidin-3-yl)-1,3-dioxoisoindolin-4-yl)piperazin-1-yl)pentanoyl)pyrrolidin-3-yl)-2-fluoro-5-methoxybenzamide] | 
